The subject of series [1] is juvenile soft ticks (Ornithodoros moubata). Put plainly: Guinea pig - efficacy against argaside tick. In kind it is in vivo. As to the method:
(§1) Guinea pigs were locally co-infested (using an infestation device on a shaved skin area) with juvenile soft ticks (Ornithodoros moubata) and bed bugs (Cimex lectularius) before the treatment day (Day 0) to provide a baseline-negative control value. Guinea pigs were treated orally (by gavage) or subcutaneously at a dose of 5 mg/kg bodyweight of a test compound in a formulation of 10% DMF/Emulsifier+90% Aqua ad injectabilia.
(§2) Repeated local infestations with both parasites were performed at different time points after treatment. Within approximately 45 min after each infestation ten engorged ticks and ten engorged bed bugs were • collected and the percentage of dead and damaged parasites per species were • assessed approximately 24 hours following collection. The efficacy was • calculated as % of inhibition ‘killed+damaged’ parasites in a treated group in comparison to the baseline-negative control (using a modified Schneider Orelli's formula).
(§3) Results: Activity of the test compounds at different evaluation time-points (≥80% inhibition were found active): […]

In series [2] the test system is bed bugs (Cimex lectularius). Put plainly: Guinea pig - efficacy against bed bug. In kind it is in vivo. On the procedure: as §1, §2, §3
Series [3] has as its system Beet Armyworm (Spodoptera exigua). Conditions: 128-well diet tray, average of eight wells, cited from earlier work; for Test A: Bioassay on BAW, percent mortality rating: Beet Armyworm second instar larvae, 50 μg/cm^2, five to seven days; for Test A: percent mortality of Beet Armyworm (BAW) larvae, rating: 50 μg/cm^2 on artificial diet, second instar larvae, 5-7 days.
The subject of series [4] is Cabbage Looper (Trichoplusia ni). As to conditions: 128-well diet tray, average of eight wells, cited from earlier work; for Test B: Bioassay on CL, percent mortality rating: Cabbage Looper second instar larvae, 50 μg/cm^2, five to seven days; for Test B: percent mortality of Cabbage Looper (CL) larvae, rating: 50 μg/cm^2 on artificial diet, second instar larvae, 5-7 days.

The test system of series [5] is Yellow Fever Mosquito (Aedes aegypti). Conditions: Aedes aegypti larvae about 1 day old, 96-well plate, scored after 3 days; cited from earlier work.
Setting [6] is: 5 mg/kg subcutaneous, after 7 days.
[7] abbreviates: 5 mg/kg subcutaneous, after 10 days.
Where [8] appears, read: 5 mg/kg subcutaneous, after 14 days.
Setting [9] is: 5 mg/kg subcutaneous, after 17 days.
[10] abbreviates: 5 mg/kg subcutaneous, after 21 days.
[11] abbreviates: 5 mg/kg subcutaneous, after 24 days.
The mark [12] stands for this setting: 5 mg/kg subcutaneous, after 28 days.
[13] abbreviates: 5 mg/kg subcutaneous, after 31 days.
Setting [14] is: 5 mg/kg, for at least one week, both administration routes.

Take `O=C(Nc1ncc(F)cc1F)c1cc(NC(=O)C2C(c3cc(Cl)cc(C(F)(F)F)c3)C2(Cl)Cl)ccc1Cl` (centres unmarked) [Compound 475]: the “activity against tick nymphs (≥80% inhibition, killed+damaged)” value in series [1] (5 mg/kg oral, Day 0) is listed as “immediate activity”; in series [1] (5 mg/kg oral, after 7 days), “activity”; in series [1] (5 mg/kg oral, after 10 days), “activity”; in series [1] (5 mg/kg oral, after 14 days) it was “activity”; in series [1] (5 mg/kg oral, after 17 days), “activity”; in series [1] (5 mg/kg subcutaneous, Day 0), “immediate activity”. The “activity against tick nymphs (≥80% inhibition, killed+damaged)” value in series [1] (setting [6]), in series [1] (setting [7]), in series [1] (setting [8]), in series [1] (setting [9]), in series [1] (setting [10]) and in series [1] (setting [11]) was “activity” throughout. In addition, the “activity against tick nymphs (≥80% inhibition, killed+damaged)” value is “activity” in series [1] (setting [12]); “activity” in series [1] (setting [13]); “activity” in series [1] (5 mg/kg subcutaneous, after 35 days). Further, the “effective to control ticks” value in series [1] (setting [14]) is on record as 100%. Further, the “activity against bed bugs (≥80% inhibition, killed+damaged)” value is “immediate activity” in series [2] (5 mg/kg oral, Day 0); “activity” in series [2] (5 mg/kg oral, after 7 days); “activity” in series [2] (5 mg/kg oral, after 10 days); “activity” in series [2] (5 mg/kg oral, after 14 days); “activity” in series [2] (5 mg/kg oral, after 17 days); “activity” in series [2] (5 mg/kg oral, after 21 days). Further, the “activity against bed bugs (≥80% inhibition, killed+damaged)” value in series [2] (5 mg/kg oral, after 24 days) was “activity”; in series [2] (5 mg/kg oral, after 28 days), “activity”; in series [2] (5 mg/kg subcutaneous, Day 0) it was “immediate activity”; in series [2] (setting [6]), “activity”; in series [2] (setting [7]), “activity”; in series [2] (setting [8]) it was “activity”. For the same compound, the “activity against bed bugs (≥80% inhibition, killed+damaged)” value in series [2] (setting [9]), in series [2] (setting [10]), in series [2] (setting [11]), in series [2] (setting [12]) and in series [2] (setting [13]) was “activity” in each case. The “effective to control bed bugs” value in series [2] (setting [14]) came out at 100%.
On to `O=C(Nc1ccc(-n2ccnc2)cc1)c1cc(NC(=O)[C@H]2[C@H](c3cc(Cl)cc(Cl)c3)C2(Cl)Cl)ccc1Cl` [c1], for which, in series [3], the “Test A: Bioassay on BAW, percent mortality rating” value was “A (50-100)”. Besides, the “Test B: Bioassay on CL, percent mortality rating” value (shortened to “Test B … percent mortality rating”) in series [4] is “A (50-100)”. For the same compound, the “Test C: Bioassay on Yellow Fever Mosquito, mortality rating” value (“Test C: Bioassay” for short) in series [5] is given as “A (80-100)”.
As to `O=C(Nc1ccc(-n2cncn2)cc1)c1cc(NC(=O)[C@H]2[C@H](c3cc(Cl)cc(Cl)c3)C2(Cl)Cl)ccc1Cl` [c2], the “Test A: Bioassay on BAW, percent mortality rating” value in series [3] is “A (50-100)”. In addition, the “Test B … percent mortality rating” value in series [4] is on record as “A (50-100)”. In addition, the “Test C: Bioassay” value in series [5] is given as “A (80-100)”.
Take `Cc1cc(C(F)(C(F)(F)F)C(F)(F)F)cc(C)c1NC(=O)c1cc(NC(=O)[C@H]2[C@H](c3cc(Cl)cc(Cl)c3)C2(Cl)Cl)ccc1Cl` [c3]: the “Test A: Bioassay on BAW, percent mortality rating” value in series [3] is reported as “A (50-100)”. In addition, the “Test B … percent mortality rating” value in series [4] is on record as “A (50-100)”. Further, the “Test C: Bioassay” value in series [5] is on record as “D (No activity noticed in this bioassay)”.
As to `O=C(Nc1ccc(NC(=O)C2CC2)cc1)c1cc(NC(=O)[C@H]2[C@H](c3cc(Cl)cc(Cl)c3)C2(Cl)Cl)ccc1Cl` [c4], the “Test A: Bioassay on BAW, percent mortality rating” value in series [3] is on record as “A (50-100)”. Also, the “Test B … percent mortality rating” value in series [4] is reported as “A (50-100)”. In series [5], the “Test C: Bioassay” value was “A (80-100)”.
As to `O=C(CC1CC1)Nc1ccc(NC(=O)c2cc(NC(=O)[C@H]3[C@H](c4cc(Cl)cc(Cl)c4)C3(Cl)Cl)ccc2Cl)cc1` [c5], the “Test A: Bioassay on BAW, percent mortality rating” value in series [3] is reported as “A (50-100)”. Also, the “Test B … percent mortality rating” value in series [4] is recorded as “A (50-100)”. Besides, the “Test C: Bioassay” value in series [5] is listed as “A (80-100)”.
On to `COCC1(C(=O)Nc2ccc(NC(=O)c3cc(NC(=O)[C@H]4[C@H](c5cc(Cl)cc(Cl)c5)C4(Cl)Cl)ccc3Cl)cc2)CC1` [c6], for which, in series [3], the “Test A: Bioassay on BAW, percent mortality rating” value is listed as “A (50-100)”. Moreover, the “Test B … percent mortality rating” value in series [4] was “A (50-100)”. The “Test C: Bioassay” value in series [5] is given as “A (80-100)”.
Turning to `O=C(Nc1ccc(NC(=O)C2CC2(F)F)cc1)c1cc(NC(=O)[C@H]2[C@H](c3cc(Cl)cc(Cl)c3)C2(Cl)Cl)ccc1Cl` (some centres unmarked) [c7], the “Test A: Bioassay on BAW, percent mortality rating” value in series [3] was “A (50-100)”. Further, the “Test B … percent mortality rating” value in series [4] is recorded as “A (50-100)”. Further, in series [5], the “Test C: Bioassay” value is given as “A (80-100)”.
Regarding `CC(C)(C)CC(=O)Nc1ccc(NC(=O)c2cc(NC(=O)[C@H]3[C@H](c4cc(Cl)cc(Cl)c4)C3(Cl)Cl)ccc2Cl)cc1` [c8], in series [3], the “Test A: Bioassay on BAW, percent mortality rating” value is recorded as “A (50-100)”. Besides, in series [4], the “Test B … percent mortality rating” value is listed as “A (50-100)”. The “Test C: Bioassay” value in series [5] was “D (No activity noticed in this bioassay)”.
Regarding `O=C(Nc1ccc(-n2cnnc2)cc1)c1cc(NC(=O)[C@H]2[C@H](c3cc(Cl)cc(Cl)c3)C2(Cl)Cl)ccc1Cl` [c9], the “Test A: Bioassay on BAW, percent mortality rating” value in series [3] was “A (50-100)”. Further, the “Test B … percent mortality rating” value in series [4] is on record as “A (50-100)”. Also, the “Test C: Bioassay” value in series [5] is given as “A (80-100)”.
On to `CC(=O)Nc1ccc(NC(=O)c2cc(NC(=O)[C@H]3[C@H](c4cc(Cl)cc(Cl)c4)C3(Cl)Cl)ccc2Cl)c(C)c1` [c10], for which the “Test A: Bioassay on BAW, percent mortality rating” value in series [3] is on record as “A (50-100)”. In addition, the “Test B … percent mortality rating” value in series [4] was “A (50-100)”. Moreover, the “Test C: Bioassay” value in series [5] is reported as “A (80-100)”.
Regarding `O=C(Nc1ccc2ncsc2c1)c1cc(NC(=O)C2C(c3cc(Cl)cc(Cl)c3)C2(Cl)Cl)ccc1Cl` (centres unmarked) [c11], the “Test A: Bioassay on BAW, percent mortality rating” value in series [3] is reported as “A (50-100)”. Besides, in series [4], the “Test B … percent mortality rating” value was “A (50-100)”. Besides, the “Test C: Bioassay” value in series [5] is on record as “A (80-100)”.
On to `O=C(Nc1ccc2[nH]ccc2c1)c1cc(NC(=O)C2C(c3cc(Cl)cc(Cl)c3)C2(Cl)Cl)ccc1Cl` (centres unmarked) [c12], for which, in series [3], the “Test A: Bioassay on BAW, percent mortality rating” value was “A (50-100)”. In addition, in series [4], the “Test B … percent mortality rating” value is reported as “A (50-100)”. Also, the “Test C: Bioassay” value in series [5] is “A (80-100)”.
For the compound `O=C(Nc1ccc2cccnc2c1)c1cc(NC(=O)C2C(c3cc(Cl)cc(Cl)c3)C2(Cl)Cl)ccc1Cl` (centres unmarked) [c13], the “Test A: Bioassay on BAW, percent mortality rating” value in series [3] is “A (50-100)”. In addition, the “Test B … percent mortality rating” value in series [4] is “A (50-100)”. In addition, the “Test C: Bioassay” value in series [5] is given as “B (More than 0 - Less than 80)”.
`O=C(Nc1cnc2cc[nH]c2c1)c1cc(NC(=O)C2C(c3cc(Cl)cc(Cl)c3)C2(Cl)Cl)ccc1Cl` (centres unmarked) [c14]: in series [3], the “Test A: Bioassay on BAW, percent mortality rating” value is recorded as “A (50-100)”. In series [4], the “Test B … percent mortality rating” value is recorded as “A (50-100)”. Moreover, the “Test C: Bioassay” value in series [5] is given as “B (More than 0 - Less than 80)”.
Take `Cc1cc(N)ccc1NC(=O)c1cc(NC(=O)C2C(c3ccc(F)c(Cl)c3)C2(Cl)Cl)ccc1Cl` (centres unmarked) [c50]: the “Test B … percent mortality rating” value in series [4] was “A (50-100)”. Also, the “Test C: Bioassay” value in series [5] was “A (80-100)”.
Consider `Cc1cc(N)ccc1NC(=O)c1cc(NC(=O)C2C(c3cc(Cl)cc(Cl)c3)C2(Cl)Cl)ccc1Cl` (centres unmarked) [c82], for which the “Test B … percent mortality rating” value in series [4] is on record as “A (50-100)”. For the same compound, the “Test C: Bioassay” value in series [5] is recorded as “A (80-100)”.
With `Cc1cc(N)ccc1NC(=O)c1cc(NC(=O)C2C(c3cc(Cl)cc(Cl)c3)C2(Cl)Cl)ccc1Cl` (centres unmarked) [c83], in series [4], the “Test B … percent mortality rating” value is given as “A (50-100)”. The “Test C: Bioassay” value in series [5] is given as “A (80-100)”.
As for `CC(=O)OCCNc1ccc(NC(=O)c2cc(NC(=O)C3C(c4ccc(F)c(C(F)(F)F)c4)C3(Cl)Cl)ccc2Cl)c(C)c1` (centres unmarked) [c119], the “Test A: percent mortality of Beet Armyworm (BAW) larvae, rating” value in series [3] is recorded as “A (50-100)”. For the same compound, the “Test B: percent mortality of Cabbage Looper (CL) larvae, rating” value in series [4] is “A (50-100)”.
For `Cc1cc(NCCO)ccc1NC(=O)c1cc(NC(=O)C2C(c3ccc(F)c(C(F)(F)F)c3)C2(Cl)Cl)ccc1Cl` (centres unmarked) [c120], the “Test A: percent mortality of Beet Armyworm (BAW) larvae, rating” value in series [3] is given as “A (50-100)”. Besides, the “Test B: percent mortality of Cabbage Looper (CL) larvae, rating” value in series [4] is reported as “A (50-100)”.

The values above are taken from patent publication US20240315993A1, “ANTIPARASITIC COMPOUNDS” (Intervet Inc., priority 2021, published 2024).
